For three compounds, Km results are on record in PMC3314689, “Characterization of Cholinesterases in Plasma of Three Portuguese Native Bird Species: Application to Biomonitoring” (PLoS ONE, 2012).

Like-named read-outs stand apart in the source and are kept apart here.

Common to all, as to experiment: Ellman microplate assay, Michaelis-Menten fit
Conditions in all cases: apparent, diluted plasma, 0.1 M phosphate pH 7.2, mean of 3 individuals
In general terms: DTNB colorimetry detects thiols as they appear.

In assay [1] the test system is T1, plasma ChE / plasma BChE of A. cinerea.
T1 construct: native enzyme in diluted EDTA plasma, not purified
Format: biochemical, Ardea cinerea. The text has this: Ellman microplate assay, Michaelis-Menten fit on plasma ChE / plasma BChE of A. cinerea

Assay [2] concerns T2, plasma ChE / plasma BChE of M. bassanus.
T2 construct: native enzyme in diluted EDTA plasma, not purified
Format: biochemical, Morus bassanus. An excerpt: Ellman microplate assay, Michaelis-Menten fit on plasma ChE / plasma BChE of M. bassanus

For assay [3], the system named is T3, plasma ChE / plasma BChE of C. ciconia.
T3 construct: native enzyme in diluted EDTA plasma, not purified
Type of assay: biochemical. An excerpt: Ellman microplate assay, Michaelis-Menten fit on plasma ChE / plasma BChE of C. ciconia

On to `CC(=O)SCC[N+](C)(C)C` [acetylthiocholine iodide], for which the Km is 247 µM in assay [1] (read-out: AcSCh / Km), 15.3 µM in assay [2] (read-out: AcSCh / Km) and 10.7 µM in assay [3] (read-out: AcSCh / Km).

Consider `CCCC(=O)SCC[N+](C)(C)C` [S-butyrylthiocholine iodide], for which the figures for the Km in assay [1] (read-out: BuSCh / Km), in assay [2] (read-out: BuSCh / Km) and in assay [3] (read-out: BuSCh / Km) were 167 µM, 19.4 µM and 4.8 µM, respectively.

Turning to `CCC(=O)SCC[N+](C)(C)C` [propionylthiocholine iodide], the figures for the Km in assay [1] (read-out: PrSCh / Km), in assay [2] (read-out: PrSCh / Km) and in assay [3] (read-out: PrSCh / Km) were 150 µM, 21.4 µM and 6.1 µM, respectively.
